Data on 19 compounds can be found in patent publication US20240174690A1, “ANNULATED 2-AMINO-3-CYANO THIOPHENES AND DERIVATIVES FOR THE TREATMENT OF CANCER” (BOEHRINGER INGELHEIM INTERNATIONAL GMBH, priority 2021, published 2024).

Molecules are shown by their SMILES. Where two headings read alike, the source gives them in different places.

The subject of data set [1] is KRAS G12C-dependent Ba/F3 cells. The data set is described as follows: Ba/F3 proliferation assay, KRAS G12C. The data set is classed as cell-based. As to conditions: Mus musculus, BaF3, 72 h, AlamarBlue. The method in brief:
(§1)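 Proliferation of mutant-KRAS-driven Ba/F3 cells cultured without IL-3 is followed with AlamarBlue after compound addition. Curves are fitted from duplicate wells.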

Data set [2] deals with KRAS G12V-dependent Ba/F3 cells. In words: Ba/F3 proliferation assay, KRAS G12V.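 Also: proliferation IC50 in KRAS G12V-dependent Ba/F3 cells read by AlamarBlue.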 The data set is classed as cell-based. As to conditions: Mus musculus, BaF3, 72 h, AlamarBlue. The method in brief:
as §1
A general note: Resazurin is reduced to fluorescent resorufin, in cell work by metabolically active cells.

For another data set, the system named is NCI-H358 cells. In words: NCI-H358 CTG proliferation assay (120 h) (NSCLC, G12C). It is filed as cell-based, human. To be noted: Homo sapiens. The method in brief: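 IC50 values derive from four-parameter nonlinear regression of CellTiter-Glo viability (RLU relative to DMSO wells) after 120 h of exposure. Cells were plated in RPMI-1640 + 10% FCS at 2000 per well (assay 1) or 200 per well (assay 2). Untreated cells were measured at compound addition as T0.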

The subject of a further data set is SAS cells. In words: SAS CTG proliferation assay (120 h) (HNSCC, wt amplified). It is filed as cell-based. The method in brief:
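Viability measured by CellTiter-Glo luminescence, normalized to DMSO wells, after 120 h compound treatment of SAS cells. Cells grown in DMEM:F12 plus 10% FCS at 300 cells per well, dosed the day after seeding. Four-parameter fit gives IC50.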

Data set [3] can be described thus: Metabolic (microsomal) stability assay, human liver microsomes (HLM). The data set is classed as in vitro ADME. As to conditions: predicted clearance as percent of liver blood flow, 1 μM. The gist of the method:
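LC-MS/MS tracked parent disappearance at 0, 5, 15, 30 and 60 min in NADPH-initiated incubations with 1 mg/mL human microsomal protein and 1 μM compound at 37°C, pH 7.5. First-order fits gave intrinsic clearance, which was scaled up and reported as % QH. NADPH-free controls were also run.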

The nature of data set [4]: Plasma protein binding assay (PPB), equilibrium dialysis, 10% FCS in PBS. As to conditions: bovine, read-out: PPB 10% FCS (% fu). It is filed as in vitro ADME. The method in brief: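 Test compound (1-10 μmol/L) in 10% FCS in PBS was dialysed for 3-5 h at 37° C versus PBS ± dextran across a semipermeable membrane. LC-MS of both compartments after protein precipitation gave Cserum and Cbuffer, from which the unbound fraction fu was derived.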

The mark [5] stands for this setting: assay 2, CTG, read-out: H358 (assay 2) IC50.
[6] abbreviates: assay 1, CTG, read-out: H358 (assay 1) IC50.

Broadly, the IC50 is the midpoint of a concentration-inhibition curve. With `C[C@H](Oc1cc(N2CC[C@@H](N(C)C)C2)nc(-c2noc3c2CCC[C@@]32CCCc3sc(N)c(C#N)c32)n1)[C@@H]1CCCN1C` [II-47], the concentration for half-maximal inhibition (IC50) in data set [1] amounted to 0.24 µM; in data set [2], 0.164 µM; with NCI-H358 cells (setting [5]), 2.05 µM; in the data set with SAS cells, 2.62 µM. Moreover, the “HLM QH” value in data set [3] is listed as under 24%. For the same compound, the fraction unbound in data set [4] turned out to be 0.34.

Turning to `CO[C@@H]1C[C@@H]([C@H](C)Oc2cc(-c3ccn(C)n3)nc(-c3onc4c3CCC[C@@]43CCCc4sc(N)c(C#N)c43)n2)N(C)C1` [I-23], the IC50 in data set [1] is 0.01 µM; in data set [2], 0.007 µM; in the data set on NCI-H358 cells (setting [6]) it was 0.001 µM; with SAS cells, 0.024 µM. In addition, in data set [3], the “HLM QH” value is 45%. Also, the fraction unbound in data set [4] stood at 0.2.

`C[C@H](Oc1cc(-c2ccn(C[C@@H](C)O)n2)nc(-c2onc3c2CCC[C@@]32CCCc3sc(N)c(C#N)c32)n1)[C@@H]1CCCN1C` [I-30]: the IC50 in data set [1] turned out to be 0.009 µM; in data set [2] it was 0.008 µM; in the data set with NCI-H358 cells (setting [5]), 0.205 µM; in the data set with SAS cells, 0.05 µM. Besides, the “HLM QH” value in data set [3] is under 24%. The fraction unbound in data set [4] was 0.46.

For `C[C@H](Oc1cc(N2CCNC3(CCC3)C2)nc(-c2onc3c2CCC[C@@]32CCCc3sc(N)c(C#N)c32)n1)[C@@H]1CCCN1C` [I-3], the concentration for half-maximal inhibition (IC50) came out at 0.345 µM in data set [1], 0.351 µM in data set [2], 1.32 µM in the data set with NCI-H358 cells (setting [5]) and 4.89 µM in the data set on SAS cells. For the same compound, in data set [3], the “HLM QH” value is under 24%. In addition, the fraction unbound in data set [4] was 0.68.

Consider `C[C@H](Oc1cc(-c2cnsc2)nc(-c2onc3c2CCC[C@@]32CCCc3sc(N)c(C#N)c32)n1)[C@@H]1CCCN1C` [I-27], for which the concentration for half-maximal inhibition (IC50) in data set [1] came out at 0.018 µM; in data set [2], 0.007 µM; in the data set on NCI-H358 cells (setting [5]), 0.121 µM; in the data set on SAS cells it was 0.109 µM. Moreover, the “HLM QH” value in data set [3] was under 24%. Also, the fraction unbound in data set [4] was 0.21.

With `C[C@H](Oc1cc(N2CCNC3(CCC3)C2)nc(-c2noc3c2CCC[C@@]32CCCc3sc(N)c(C#N)c32)n1)[C@@H]1CCCN1C` [II-40], the IC50 was 0.381 µM in data set [1], 0.456 µM in data set [2], 1.3 µM with NCI-H358 cells (setting [5]) and 0.979 µM with SAS cells. In addition, the “HLM QH” value in data set [3] is under 24%. Further, the fraction unbound in data set [4] was 0.53.

Turning to `C[C@H](Oc1cc(N2CCN(C)C3(CC3)C2)nc(-c2onc3c2CCC[C@@]32CCCc3sc(N)c(C#N)c32)n1)[C@@H]1C[C@@H](F)CN1C` [I-39], the half-inhibitory concentration (IC50) in data set [1] was 0.613 µM; in data set [2], 0.895 µM; in the data set on NCI-H358 cells (setting [5]), 1.45 µM; in the data set on SAS cells, 1.2 µM. Further, the “HLM QH” value in data set [3] is recorded as 39%. In addition, the fraction unbound in data set [4] is 0.07.

`CNC(=O)c1ccn(-c2cc(O[C@@H](C)[C@@H]3CCCN3C)nc(-c3noc4c3CCC[C@@]43CCCc4sc(N)c(C#N)c43)n2)n1` [II-20]: the concentration for half-maximal inhibition (IC50) in data set [1] is 0.002 µM; in data set [2], 0.002 µM; in the data set with NCI-H358 cells (setting [6]), 0.006 µM; in the data set on NCI-H358 cells (setting [5]), 0.002 µM; in the data set on SAS cells it was 0.086 µM. Further, the “HLM QH” value in data set [3] is on record as under 24%. In addition, the fraction unbound in data set [4] worked out at 0.14.

Take `C[C@H](Oc1cc([C@@H]2CCOC2)nc(-c2onc3c2CCC[C@@]32CCCc3sc(N)c(C#N)c32)n1)[C@@H]1CCCN1C` [I-22]: the IC50 in data set [1] was found to be 0.009 µM; in data set [2], 0.009 µM; with NCI-H358 cells (setting [6]), 0.031 µM; in the data set with NCI-H358 cells (setting [5]), 0.01 µM; in the data set on SAS cells it was 0.033 µM. The “HLM QH” value in data set [3] is reported as 37%. Also, the fraction unbound in data set [4] was 0.38.

Consider `CCOC(=O)c1ccn(-c2cc(O[C@@H](C)[C@@H]3CCCN3C)nc(-c3noc4c3CCC[C@@]43CCCc4sc(N)c(C#N)c43)n2)n1` [II-23], for which the half-inhibitory concentration (IC50) in data set [1] was 0.008 µM; in data set [2], 0.004 µM; with NCI-H358 cells (setting [5]), 0.004 µM; in the data set on SAS cells it was 0.222 µM. In addition, the “HLM QH” value in data set [3] is recorded as under 24%. Moreover, the fraction unbound in data set [4] amounted to 0.03.

For the compound `C[C@H](Oc1cc(-n2ccc(C(=O)N(C)C3COC3)n2)nc(-c2onc3c2CCC[C@@]32CCCc3sc(N)c(C#N)c32)n1)[C@@H]1CCCN1C` [I-60], the IC50 in data set [1] was determined as 0.005 µM; in data set [2], 0.004 µM; with NCI-H358 cells (setting [5]), 0.004 µM; in the data set on SAS cells it was 0.04 µM. The “HLM QH” value in data set [3] is given as under 24%. Further, the fraction unbound in data set [4] worked out at 0.1.

For `C[C@H](Oc1cc(-n2ccc(C(=O)N3CCCC3)n2)nc(-c2noc3c2CCC[C@@]32CCCc3sc(N)c(C#N)c32)n1)[C@@H]1CCCN1C` [II-19], the IC50 in data set [1] came out at 0.005 µM; in data set [2], 0.003 µM; in the data set on NCI-H358 cells (setting [6]) it was 0.017 µM; in the data set on NCI-H358 cells (setting [5]), 0.002 µM; in the data set with SAS cells it was 0.132 µM. Besides, the “HLM QH” value in data set [3] was 30%. Also, the fraction unbound in data set [4] came out at 0.04.

Regarding `C[C@@H]1CN(c2cc(O[C@@H](C)[C@@H]3C[C@@H](F)CN3C)nc(-c3noc4c3CCC[C@@]43CCCc4sc(N)c(C#N)c43)n2)CC2(CC2)N1` [II-17], the IC50 in data set [1] was found to be 0.373 µM; in data set [2], 0.422 µM; in the data set with NCI-H358 cells (setting [5]), 0.134 µM; in the data set with SAS cells, 1.03 µM. The “HLM QH” value in data set [3] was 63%. The fraction unbound in data set [4] turned out to be 0.09.

For the compound `C[C@H](Oc1cc(-c2ccn(C3COC3)n2)nc(-c2onc3c2CCC[C@@]32CCCc3sc(N)c(C#N)c32)n1)[C@@H]1CCCN1C` [I-34], the concentration for half-maximal inhibition (IC50) in data set [1] turned out to be 0.007 µM; in data set [2], 0.014 µM; in the data set on NCI-H358 cells (setting [5]) it was 0.076 µM; in the data set with SAS cells, 0.185 µM. Besides, the “HLM QH” value in data set [3] was under 24%. In addition, the fraction unbound in data set [4] came to 0.54.

As for `[2H]C([2H])([2H])N1C[C@H](F)C[C@H]1[C@H](C)Oc1cc(N2CCN(C)C3(CC3)C2)nc(-c2noc3c2CCC[C@@]32CCCc3sc(N)c(C#N)c32)n1` [II-209], the half-inhibitory concentration (IC50) in data set [1] is 0.271 µM; in data set [2] it was 0.389 µM; in the data set on NCI-H358 cells (setting [5]), 0.136 µM; in the data set with SAS cells, 0.737 µM. In addition, the “HLM QH” value in data set [3] is on record as 40%. For the same compound, in data set [4], the fraction unbound was 0.06.

For the compound `C[C@H](Oc1cc(-n2ccc(C(=O)N[C@H]3CCOC3)n2)nc(-c2onc3c2CCC[C@@]32CCCc3sc(N)c(C#N)c32)n1)[C@@H]1CCCN1C` [I-57], the half-maximal inhibitory concentration (IC50) was 0.001 µM in data set [1], 0.001 µM in data set [2] and 0.006 µM with NCI-H358 cells (setting [5]).

As to `[2H]C([2H])([2H])N1C[C@H](F)C[C@H]1[C@H](C)Oc1cc(N2CCNC3(CC3)C2)nc(-c2noc3c2CCC[C@@]32CCCc3sc(N)c(C#N)c32)n1` [II-208], the IC50 in data set [1] was found to be 0.112 µM; in data set [2] it was 0.166 µM; in the data set on NCI-H358 cells (setting [5]), 0.099 µM; with SAS cells, 0.718 µM. The “HLM QH” value in data set [3] is 48%. Also, in data set [4], the fraction unbound was 0.15.

For `C[C@H](Oc1cc(N2CCNC3(COC3)C2)nc(-c2onc3c2CCC[C@@]32CCCc3sc(N)c(C#N)c32)n1)[C@@H]1CCCN1C` [I-4], the IC50 in data set [1] is 0.069 µM; in data set [2], 0.134 µM; with NCI-H358 cells (setting [5]), 0.74 µM; in the data set with SAS cells it was 0.395 µM. The “HLM QH” value in data set [3] is on record as under 24%.

On to `C[C@H](Oc1cc(N2CCNCC2)nc(-c2noc3c2CCC[C@@]32CCCc3sc(N)c(C#N)c32)n1)[C@@H]1CCCN1C` [II-45], for which the IC50 in data set [1] is 0.606 µM; in data set [2] it was 0.642 µM; in the data set with NCI-H358 cells (setting [6]), 0.969 µM; in the data set with NCI-H358 cells (setting [5]), over 25 µM; in the data set with SAS cells, 0.53 µM. In addition, the fraction unbound in data set [4] amounted to 0.61.
